Measured values from the NIST ThermoML archive (doi:10.1016/j.jct.2013.06.022).
Where “and” joins values, the source holds several entries; their conditions need not be identical. Identical values can stand only once. Numbers after ± are expanded uncertainties.

Columns and labels:
[1] = Crystal; for vapor or sublimation pressure: Calculated from knudsen effusion weight loss; for Normal melting temperature: DTA
[2] = Molar enthalpy of transition or fusion; conditions: Crystal; DSC

COc1cccc(C(N)=O)c1 [3-methoxybenzamide]
[1]
Conditions	vapor or sublimation pressure
345.11 K	7.2e-05 ± 4e-06 kPa and 7.1e-05 ± 4e-06 kPa
347.12 K	9.2e-05 ± 5e-06 kPa and 8.8e-05 ± 4e-06 kPa
349.16 K	0.000112 ± 6e-06 kPa and 0.000117 ± 6e-06 kPa
351.12 K	0.000143 ± 7e-06 kPa and 0.000142 ± 7e-06 kPa
353.16 K	0.00018 ± 9e-06 kPa and 0.000175 ± 9e-06 kPa and 0.000178 ± 9e-06 kPa
355.16 K	0.000219 ± 1.1e-05 kPa and 0.000225 ± 1.1e-05 kPa
357.12 K	0.000283 ± 1.4e-05 kPa and 0.000287 ± 1.4e-05 kPa and 0.000286 ± 1.4e-05 kPa
359.16 K	0.000357 ± 1.8e-05 kPa and 0.000346 ± 1.7e-05 kPa
361.14 K	0.000432 ± 2.2e-05 kPa and 0.000428 ± 2.1e-05 kPa and 0.000443 ± 2.2e-05 kPa
363.13 K	0.00055 ± 2.8e-05 kPa and 0.000547 ± 2.7e-05 kPa and 0.000546 ± 2.7e-05 kPa
365.17 K	0.00068 ± 3.4e-05 kPa and 0.000682 ± 3.4e-05 kPa and 0.000658 ± 3.3e-05 kPa
367.13 K	0.000844 ± 4.2e-05 kPa and 0.000848 ± 4.2e-05 kPa and 0.000842 ± 4.2e-05 kPa
369.17 K	0.001047 ± 0.00011 kPa and 0.001014 ± 0.0001 kPa
371.15 K	0.001291 ± 0.00014 kPa and 0.001251 ± 0.00013 kPa and 0.00125 ± 0.00013 kPa

Conditions	Molar enthalpy of transition or fusion [kJ/mol]	Normal melting temperature [°C]
[1]	–	134.00 ± 0.41
[2]	28.6 ± 0.64	–

COc1ccccc1C(N)=O [2-methoxybenzamide]
[1]
Conditions	vapor or sublimation pressure
335.12 K	0.0001 ± 5e-06 kPa and 0.000101 ± 5e-06 kPa
337.18 K	0.000126 ± 6e-06 kPa and 0.000124 ± 6e-06 kPa
339.16 K	0.000155 ± 8e-06 kPa and 0.000153 ± 8e-06 kPa
341.12 K	0.000198 ± 1e-05 kPa and 0.000195 ± 1e-05 kPa
343.16 K	0.000248 ± 1.2e-05 kPa and 0.000241 ± 1.2e-05 kPa and 0.000249 ± 1.2e-05 kPa
345.16 K	0.000305 ± 1.5e-05 kPa and 0.0003 ± 1.5e-05 kPa and 0.000309 ± 1.5e-05 kPa
347.11 K	0.000389 ± 1.9e-05 kPa and 0.000382 ± 1.9e-05 kPa and 0.000385 ± 1.9e-05 kPa
349.15 K	0.000486 ± 2.4e-05 kPa and 0.000474 ± 2.4e-05 kPa and 0.000483 ± 2.4e-05 kPa
351.16 K	0.000594 ± 3e-05 kPa and 0.000581 ± 2.9e-05 kPa
353.12 K	0.00075 ± 3.8e-05 kPa and 0.000738 ± 3.7e-05 kPa and 0.000736 ± 3.7e-05 kPa
355.17 K	0.000924 ± 4.6e-05 kPa and 0.000926 ± 4.6e-05 kPa and 0.00091 ± 4.6e-05 kPa
357.16 K	0.001122 ± 0.00012 kPa and 0.001121 ± 0.00012 kPa and 0.001106 ± 0.00011 kPa

Conditions	Molar enthalpy of transition or fusion [kJ/mol]	Normal melting temperature [°C]
[1]	–	128.51 ± 0.42
[2]	27.2 ± 0.64	–

COc1ccc(C(N)=O)cc1 [4-methoxybenzamide]
[1]
Conditions	vapor or sublimation pressure
357.12 K	0.000103 ± 5e-06 kPa
359.19 K	0.000128 ± 6e-06 kPa and 0.000124 ± 6e-06 kPa
361.16 K	0.000156 ± 8e-06 kPa and 0.000154 ± 8e-06 kPa
363.12 K	0.000195 ± 1e-05 kPa and 0.000193 ± 1e-05 kPa
365.2 K	0.000242 ± 1.2e-05 kPa and 0.000238 ± 1.2e-05 kPa
367.16 K	0.000292 ± 1.5e-05 kPa and 0.00029 ± 1.5e-05 kPa and 0.000299 ± 1.5e-05 kPa
369.12 K	0.000366 ± 1.8e-05 kPa and 0.000368 ± 1.8e-05 kPa and 0.000367 ± 1.8e-05 kPa
371.18 K	0.000455 ± 2.3e-05 kPa and 0.000442 ± 2.2e-05 kPa and 0.000452 ± 2.3e-05 kPa
373.15 K	0.000548 ± 2.7e-05 kPa and 0.000535 ± 2.7e-05 kPa and 0.000556 ± 2.8e-05 kPa
375.11 K	0.000689 ± 3.4e-05 kPa and 0.000681 ± 3.4e-05 kPa and 0.000685 ± 3.4e-05 kPa
377.18 K	0.000833 ± 4.2e-05 kPa and 0.000838 ± 4.2e-05 kPa and 0.000812 ± 4.1e-05 kPa
379.15 K	0.001012 ± 0.0001 kPa and 0.000985 ± 4.9e-05 kPa and 0.000979 ± 4.9e-05 kPa

Conditions	Molar enthalpy of transition or fusion [kJ/mol]	Normal melting temperature [°C]
[1]	–	167.49 ± 0.4
[2]	29 ± 0.67	–
